Reference: ChEMBL document CHEMBL4052714, “Synthesis and antibacterial activity of novel 4″-O-(1-aralkyl-1,2,3-triazol-4-methyl-carbamoyl) azithromycin analogs” (2017)
Converted amounts (≈) assume the structure as drawn.

Experiments:
Format in all cases: functional
Streptococcus pneumoniae [1] = assay: Antibacterial activity against erythromycin-resistant Streptococcus pneumoniae AB11 expressing ermB/mefA gene
Staphylococcus aureus [2] = assay: Antibacterial activity against erythromycin-susceptible Staphylococcus aureus ATCC 25923
Staphylococcus aureus [3] = assay: Antibacterial activity against methicillin-susceptible Staphylococcus aureus ATCC 29213
Streptococcus pyogenes [4] = assay: Antibacterial activity against erythromycin-resistant Streptococcus pyogenes isolate R2
Streptococcus pyogenes [5] = assay: Antibacterial activity against erythromycin-susceptible Streptococcus pyogenes isolate S2
Streptococcus pneumoniae [6] = assay: Antibacterial activity against erythromycin-resistant Streptococcus pneumoniae B1 expressing ermB gene
Streptococcus pneumoniae [7] = assay: Antibacterial activity against erythromycin-susceptible Streptococcus pneumoniae ATCC 49619
Streptococcus pneumoniae [8] = assay: Antibacterial activity against erythromycin-resistant Streptococcus pneumoniae A22072 expressing mefA gene
Escherichia coli = assay: Antibacterial activity against Escherichia coli ATCC 25922
Pseudomonas aeruginosa = assay: Antibacterial activity against Pseudomonas aeruginosa ATCC 27853

`CC[C@H]1OC(=O)[C@H](C)[C@@H](O[C@H]2C[C@@](C)(OC)[C@@H](OC(=O)NCc3cn(Cc4ccccc4F)nn3)[C@H](C)O2)[C@H](C)[C@@H](O[C@@H]2O[C@H](C)C[C@H](N(C)C)[C@H]2O)[C@](C)(O)C[C@@H](C)CN(C)[C@H](C)[C@H]2OC(=O)O[C@@]21C` showed an MIC (Streptococcus pneumoniae [1]) of 0.25 µg/mL (≈ 0.248 µM), an MIC (Staphylococcus aureus [2]) of 4 µg/mL (≈ 3.97 µM) and an MIC (Staphylococcus aureus [3]) of 32 µg/mL (≈ 31.8 µM). The MIC (Streptococcus pyogenes [4]) was 128 µg/mL (≈ 127 µM), the MIC (Streptococcus pyogenes [5]) was 0.125 µg/mL (≈ 0.124 µM) and the MIC (Streptococcus pneumoniae [6]) was 2 µg/mL (≈ 1.99 µM). For the same compound, the MIC (Streptococcus pneumoniae [7]) was 0.5 µg/mL (≈ 0.496 µM), the MIC (Streptococcus pneumoniae [8]) was 1 µg/mL (≈ 0.993 µM) and the MIC (Escherichia coli) was 128 µg/mL (≈ 127 µM). It also gave an MIC (Pseudomonas aeruginosa) of 64 µg/mL (≈ 63.5 µM).

Work on `CC[C@H]1OC(=O)[C@H](C)[C@@H](O[C@H]2C[C@@](C)(OC)[C@@H](OC(=O)NCc3cn(Cc4c(Cl)cccc4Cl)nn3)[C@H](C)O2)[C@H](C)[C@@H](O[C@@H]2O[C@H](C)C[C@H](N(C)C)[C@H]2O)[C@](C)(O)C[C@@H](C)CN(C)[C@H](C)[C@@H](O)[C@]1(C)O` yielded an MIC (Streptococcus pneumoniae [1]) of 0.5 µg/mL (≈ 0.484 µM), an MIC (Staphylococcus aureus [2]) of 1 µg/mL (≈ 0.969 µM) and an MIC (Staphylococcus aureus [3]) of 16 µg/mL (≈ 15.5 µM). It also gave an MIC (Streptococcus pyogenes [4]) of 32 µg/mL (≈ 31 µM), an MIC (Streptococcus pyogenes [5]) of 0.03 µg/mL (≈ 0.0291 µM) and an MIC (Streptococcus pneumoniae [6]) of 0.5 µg/mL (≈ 0.484 µM). The MIC (Streptococcus pneumoniae [7]) was 0.5 µg/mL (≈ 0.484 µM), the MIC (Streptococcus pneumoniae [8]) was 0.5 µg/mL (≈ 0.484 µM) and the MIC (Escherichia coli) was 32 µg/mL (≈ 31 µM). For the same compound, the MIC (Pseudomonas aeruginosa) was 32 µg/mL (≈ 31 µM).

Work on `CC[C@H]1OC(=O)[C@H](C)[C@@H](O[C@H]2C[C@@](C)(OC)[C@@H](OC(=O)NCc3cn(Cc4ccc(Cl)cc4)nn3)[C@H](C)O2)[C@H](C)[C@@H](O[C@@H]2O[C@H](C)C[C@H](N(C)C)[C@H]2O)[C@](C)(O)C[C@@H](C)CN(C)[C@H](C)[C@H]2OC(=O)O[C@@]21C` yielded an MIC (Streptococcus pneumoniae [1]) of 4 µg/mL (≈ 3.91 µM), an MIC (Staphylococcus aureus [2]) of 4 µg/mL (≈ 3.91 µM) and an MIC (Staphylococcus aureus [3]) of 32 µg/mL (≈ 31.3 µM). It also gave an MIC (Streptococcus pyogenes [4]) of 64 µg/mL (≈ 62.5 µM), an MIC (Streptococcus pyogenes [5]) of 0.125 µg/mL (≈ 0.122 µM) and an MIC (Streptococcus pneumoniae [6]) of 8 µg/mL (≈ 7.82 µM). For the same compound, the MIC (Streptococcus pneumoniae [7]) was 1 µg/mL (≈ 0.977 µM), the MIC (Streptococcus pneumoniae [8]) was 1 µg/mL (≈ 0.977 µM) and the MIC (Escherichia coli) was 64 µg/mL (≈ 62.5 µM). For the same compound, the MIC (Pseudomonas aeruginosa) was 64 µg/mL (≈ 62.5 µM).

`CC[C@H]1OC(=O)[C@H](C)[C@@H](O[C@H]2C[C@@](C)(OC)[C@@H](OC(=O)NCc3cn(Cc4cccc(C)c4)nn3)[C@H](C)O2)[C@H](C)[C@@H](O[C@@H]2O[C@H](C)C[C@H](N(C)C)[C@H]2O)[C@](C)(O)C[C@@H](C)CN(C)[C@H](C)[C@H]2OC(=O)O[C@@]21C` gave an MIC (Streptococcus pneumoniae [1]) of 2 µg/mL (≈ 1.99 µM), an MIC (Staphylococcus aureus [2]) of 2 µg/mL (≈ 1.99 µM) and an MIC (Staphylococcus aureus [3]) of 32 µg/mL (≈ 31.9 µM). It also gave an MIC (Streptococcus pyogenes [4]) of 64 µg/mL (≈ 63.8 µM), an MIC (Streptococcus pyogenes [5]) of 0.25 µg/mL (≈ 0.249 µM) and an MIC (Streptococcus pneumoniae [6]) of 4 µg/mL (≈ 3.99 µM). For the same compound, the MIC (Streptococcus pneumoniae [7]) was 1 µg/mL (≈ 0.997 µM), the MIC (Streptococcus pneumoniae [8]) was 2 µg/mL (≈ 1.99 µM) and the MIC (Escherichia coli) was 128 µg/mL (≈ 128 µM). For the same compound, the MIC (Pseudomonas aeruginosa) was 64 µg/mL (≈ 63.8 µM).

Compound `CC[C@H]1OC(=O)[C@H](C)[C@@H](O[C@H]2C[C@@](C)(OC)[C@@H](OC(=O)NCc3cn(Cc4ccccc4)nn3)[C@H](C)O2)[C@H](C)[C@@H](O[C@@H]2O[C@H](C)C[C@H](N(C)C)[C@H]2O)[C@](C)(O)C[C@@H](C)CN(C)[C@H](C)[C@H]2OC(=O)O[C@@]21C` has an MIC (Streptococcus pneumoniae [1]) of 4 µg/mL (≈ 4.04 µM), an MIC (Staphylococcus aureus [2]) of 4 µg/mL (≈ 4.04 µM) and an MIC (Staphylococcus aureus [3]) of 32 µg/mL (≈ 32.3 µM). It also gave an MIC (Streptococcus pyogenes [4]) of 128 µg/mL (≈ 129 µM), an MIC (Streptococcus pyogenes [5]) of 0.06 µg/mL (≈ 0.0607 µM) and an MIC (Streptococcus pneumoniae [6]) of 8 µg/mL (≈ 8.09 µM). It also gave an MIC (Streptococcus pneumoniae [7]) of 0.5 µg/mL (≈ 0.505 µM), an MIC (Streptococcus pneumoniae [8]) of 8 µg/mL (≈ 8.09 µM) and an MIC (Escherichia coli) of 128 µg/mL (≈ 129 µM). For the same compound, the MIC (Pseudomonas aeruginosa) was 64 µg/mL (≈ 64.7 µM).

Compound `CC[C@H]1OC(=O)[C@H](C)[C@@H](O[C@H]2C[C@@](C)(OC)[C@@H](OC(=O)NCc3cn(Cc4ccc(C)cc4)nn3)[C@H](C)O2)[C@H](C)[C@@H](O[C@@H]2O[C@H](C)C[C@H](N(C)C)[C@H]2O)[C@](C)(O)C[C@@H](C)CN(C)[C@H](C)[C@H]2OC(=O)O[C@@]21C` has an MIC (Streptococcus pneumoniae [1]) of 1 µg/mL (≈ 0.997 µM), an MIC (Staphylococcus aureus [2]) of 4 µg/mL (≈ 3.99 µM) and an MIC (Staphylococcus aureus [3]) of 64 µg/mL (≈ 63.8 µM). For the same compound, the MIC (Streptococcus pyogenes [4]) was 64 µg/mL (≈ 63.8 µM), the MIC (Streptococcus pyogenes [5]) was 0.25 µg/mL (≈ 0.249 µM) and the MIC (Streptococcus pneumoniae [6]) was 2 µg/mL (≈ 1.99 µM). It also gave an MIC (Streptococcus pneumoniae [7]) of 1 µg/mL (≈ 0.997 µM), an MIC (Streptococcus pneumoniae [8]) of 1 µg/mL (≈ 0.997 µM) and an MIC (Escherichia coli) of 128 µg/mL (≈ 128 µM). For the same compound, the MIC (Pseudomonas aeruginosa) was 64 µg/mL (≈ 63.8 µM).

Compound `CC[C@H]1OC(=O)[C@H](C)[C@@H](O[C@H]2C[C@@](C)(OC)[C@@H](OC(=O)NCc3cn(Cc4cccc(Cl)c4)nn3)[C@H](C)O2)[C@H](C)[C@@H](O[C@@H]2O[C@H](C)C[C@H](N(C)C)[C@H]2O)[C@](C)(O)C[C@@H](C)CN(C)[C@H](C)[C@H]2OC(=O)O[C@@]21C` has an MIC (Streptococcus pneumoniae [1]) of 1 µg/mL (≈ 0.977 µM), an MIC (Staphylococcus aureus [2]) of 4 µg/mL (≈ 3.91 µM) and an MIC (Staphylococcus aureus [3]) of 32 µg/mL (≈ 31.3 µM). The MIC (Streptococcus pyogenes [4]) was 16 µg/mL (≈ 15.6 µM), the MIC (Streptococcus pyogenes [5]) was 0.06 µg/mL (≈ 0.0586 µM) and the MIC (Streptococcus pneumoniae [6]) was 4 µg/mL (≈ 3.91 µM). It also gave an MIC (Streptococcus pneumoniae [7]) of 1 µg/mL (≈ 0.977 µM), an MIC (Streptococcus pneumoniae [8]) of 0.5 µg/mL (≈ 0.488 µM) and an MIC (Escherichia coli) of 128 µg/mL (≈ 125 µM). For the same compound, the MIC (Pseudomonas aeruginosa) was 64 µg/mL (≈ 62.5 µM).

`CC[C@H]1OC(=O)[C@H](C)[C@@H](O[C@H]2C[C@@](C)(OC)[C@@H](OC(=O)NCc3cn(Cc4ccc(F)cc4)nn3)[C@H](C)O2)[C@H](C)[C@@H](O[C@@H]2O[C@H](C)C[C@H](N(C)C)[C@H]2O)[C@](C)(O)C[C@@H](C)CN(C)[C@H](C)[C@H]2OC(=O)O[C@@]21C` showed an MIC (Streptococcus pneumoniae [1]) of 4 µg/mL (≈ 3.97 µM), an MIC (Staphylococcus aureus [2]) of 4 µg/mL (≈ 3.97 µM) and an MIC (Staphylococcus aureus [3]) of 32 µg/mL (≈ 31.8 µM). For the same compound, the MIC (Streptococcus pyogenes [4]) was 32 µg/mL (≈ 31.8 µM), the MIC (Streptococcus pyogenes [5]) was 0.125 µg/mL (≈ 0.124 µM) and the MIC (Streptococcus pneumoniae [6]) was 8 µg/mL (≈ 7.94 µM). It also gave an MIC (Streptococcus pneumoniae [7]) of 1 µg/mL (≈ 0.993 µM), an MIC (Streptococcus pneumoniae [8]) of 1 µg/mL (≈ 0.993 µM) and an MIC (Escherichia coli) of 128 µg/mL (≈ 127 µM). It also gave an MIC (Pseudomonas aeruginosa) of 64 µg/mL (≈ 63.5 µM).
